Where two headings read alike, the source gives them in different places.

One assay concerns HT1080 tumor. Kind of assay: Ex vivo biodistribution, HT1080 tumor-bearing mice. Particulars: HT1080 tumor-bearing mice treated ip daily (bestatin 15 mg/kg or actinonin 5 mg/kg), mean±SD, n=10.
Assay [1] has as its system B16-F10 tumors (APN/CD13). Particulars: for T/M ratio of treated tumor: 90 min after iv tracer; for ^68Ga-NODAGA-c(NGR) SUVmean of treated tumor: PET 90 min after iv tracer, mean ± SD.
Protocol: (§1) For experimental tumor induction, mice were anaesthetized with a dedicated small animal anaesthesia device (Tec3 Isoflurane Vaporizer, Eickemeyer Veterinary Equipment, UK) using 3% isoflurane (Forane, AbbVie), 0.4 L/min O2, and 1.4 L/min N2O. After depilation of the left shoulder area of the animals, CB17 SCID mice (n = 30) were injected subcutaneously with 1.5 × 10^6 HT1080 (human fibrosarcoma) cells in 150 μL (1/3 part of Matrigel and 2/3 part of saline), and C57BL/6 mice (n = 30) were injected subcutaneously with 3 × 10^6 B16-F10 cells in 150 μL of sterile saline. […] The tumor size was calculated using the following formula: (largest diameter × smallest diameter^2)/2.
(§2) For the actinonin-treated groups, 5 mg/kg actinonin (dissolved in 10 μL abs. EtOH and diluted with 140 μL HumAqua (aqua destillata, TEVA, Debrecen, Hungary)) was administrated daily by intraperitoneal injection for 7 days. The control-untreated group was injected intraperitoneally with 150 μL saline for 7 days.
(§3) Five and ten days after tumor cell implantation, control-untreated tumor-bearing and treated tumor-bearing animals were anaesthetized with 3% isoflurane and were injected with 5.5 ± 0.2 MBq APN/CD13-specific ^68Ga-NODAGA-c(NGR) in 150 μL saline via the lateral tail vein. After 90 min incubation time, 20 min static PET scans were performed from the tumorous area using the preclinical miniPET device (University of Debrecen, Faculty of Medicine, Department of Medical Imaging, Division of Nuclear Medicine and Translational Imaging). After 3D OSEM-LOR image reconstruction, volumes of interest (VOIs) were manually drawn around the examined regions using the BrainCAD image analysis software and quantitative standardized uptake values (SUVs) were calculated as follows: SUV = [VOI activity (Bq/mL)]/[injected activity (Bq)/animal weight (g)], assuming a density of 1 g/mL. Tumor-to-muscle (T/M) ratios were calculated from the activity of the tumor and background (muscle).
In a further assay the test system is HT1080 tumors. Kind of assay: Tumor volume, HT1080 tumors. It is filed as in vivo, CB17 SCID mice. Particulars: caliper, n = 10/group.
Assay [2] deals with APN/CD13. Briefly: Western blot analysis of APN/CD13 in B16-F10 tumors. It is filed as in vivo, mouse. To be noted: B16-F10 melanoma after treatment, densitometry.
Protocol: For western blot analysis frozen tissue samples were pulverized under liquid nitrogen and tissue homogenization was performed with TissueLyser II (QIAGEN). Cells were lysed in RIPA buffer (50 mM Tris, 150 mM NaCl, 0.1 % SDS, 1 % TritonX 100, 0.5 % sodium deoxycolate, 1 mM EDTA, 1 mM Na3VO4, 1 mM NaF, 1 mM PMSF, protease inhibitor cocktail). […] Upon densitometry, negative control samples (mouse large intestine) were considered to be 1 and values are expressed as fold change relative to controls to reduce unwanted variations. […]
Another assay relates to B16-F10 tumor. Briefly: Ex vivo biodistribution, B16-F10 tumor-bearing mice. Particulars: B16-F10 tumor-bearing mice treated ip daily (bestatin 15 mg/kg or actinonin 5 mg/kg), mean±SD, n=10.
In a further assay the test system is B16-F10 tumors. Briefly: Tumor volume, B16-F10 tumors. It is filed as in vivo, C57BL/6 mice. To be noted: caliper, n = 10/group.
The next assay relates to HT1080 tumors (APN/CD13). To be noted: for T/M SUVmean ratio of treated tumor: 90 min after iv tracer; for ^68Ga-NODAGA-c(NGR) SUVmean of treated tumor: PET 90 min after iv tracer, mean ± SD.
Assay [3] relates to APN/CD13. Kind of assay: Western blot analysis of APN/CD13 in HT1080 tumors. It is filed as in vivo, human. Particulars: HT1080 tumors after treatment, densitometry. As to the method:
For western blot analysis, frozen tissue samples were pulverized under liquid nitrogen, and tissue homogenization was performed with TissueLyser II (QIAGEN). Tumors were lysed in a RIPA buffer. After protein isolation, protein samples (10-40 μg) were separated on 10% SDS polyacrylamide gels and electrotransferred onto nitrocellulose membranes. After blocking, the membranes were incubated with primary anti-human and anti-mouse CD13 (from Santa-Cruz Biotechnology, Inc., USA) antibody at the dilution of 1 : 1000 overnight at 4°C. After washing, the membranes were probed with IgG HRP conjugated secondary antibody (Cell Signaling Technology, Inc., Beverly, MA, 1 : 2000). Beta-actin was used as a loading control. Bands were visualized by enhanced chemiluminescence reaction. Densitometry was performed using the ImageJ software. For the detailed protocol, please see Supplementary Material western blot analysis.
For western blot analysis frozen tissue samples were pulverized under liquid nitrogen and tissue homogenization was performed with TissueLyser II (QIAGEN). […] Upon densitometry, negative control samples (mouse large intestine) were considered to be 1 and values are expressed as fold change relative to controls to reduce unwanted variations. […]

Where [4] appears, read: B16-F10, day 5, bestatin 15 mg/kg or actinonin 5 mg/kg ip daily.
The mark [5] stands for this setting: B16-F10, day 10, bestatin 15 mg/kg or actinonin 5 mg/kg ip daily 7 days.
The mark [6] stands for this setting: HT1080, day 5, bestatin 15 mg/kg or actinonin 5 mg/kg ip daily.
Where [7] appears, read: HT1080, day 10, bestatin 15 mg/kg or actinonin 5 mg/kg ip daily 7 days.

Protocol for HT1080 tumors (APN/CD13): as §1, §2, §3

For `CC(C)C[C@H](NC(=O)[C@@H](O)[C@H](N)Cc1ccccc1)C(=O)O` [bestatin], the “T/M ID%/g, treated animals” value in the assay on HT1080 tumor was 1.45±0.15; in the assay with B16-F10 tumor it was 2.40±0.92. For the same molecule, the figures for the “T/M ratio of treated tumor” value in assay [1] (setting [4]) and in assay [1] (setting [5]) were 1.11 ± 0.01 and 1.63 ± 0.09, respectively. Also, the “^68Ga-NODAGA-c(NGR) SUVmean of treated tumor” value in assay [1] (B16-F10, day 5, ip daily from day 3 (bestatin 15 mg/kg, actinonin 5 mg/kg)) came to 0.03 ± 0.01; in assay [1] (B16-F10, day 10, ip daily 7 days (bestatin 15 mg/kg, actinonin 5 mg/kg)), 0.04 ± 0.001; in the assay on HT1080 tumors (APN/CD13) (HT1080, day 5, ip daily from day 3 (bestatin 15 mg/kg, actinonin 5 mg/kg)), 0.02 ± 0.01; in the assay on HT1080 tumors (APN/CD13) (HT1080, day 10, ip daily 7 days (bestatin 15 mg/kg, actinonin 5 mg/kg)), 0.01 ± 0.01. In addition, the tumor volume in the assay with HT1080 tumors (HT1080, day 3 (start of treatment)) is recorded as 52.3 ± 2.8 mm^3; in the assay with HT1080 tumors (setting [6]) it was 17 ± 1.2 mm^3; with HT1080 tumors (setting [7]), 7.0 ± 2.0 mm^3; with B16-F10 tumors (B16-F10, day 3 (start of treatment)), 52.1 ± 2.6 mm^3; in the assay with B16-F10 tumors (setting [4]), 65.0 ± 5.2 mm^3; in the assay with B16-F10 tumors (setting [5]) it was 62.0 ± 2.8 mm^3. Moreover, the “expression of APN/CD13 in tumor vs untreated” value with APN/CD13 [2] was “significantly lower”. Moreover, the “T/M SUVmean ratio of treated tumor” value was determined as 0.57 ± 0.2 in the assay with HT1080 tumors (APN/CD13) (setting [6]) and 0.61 ± 0.20 in the assay with HT1080 tumors (APN/CD13) (setting [7]). For the same molecule, the “amount of APN/CD13 protein in tumor vs control-untreated” value in the assay on APN/CD13 [3] is on record as “did not significantly reduce”.

The record behind these values is paper PMC7972841, “In Vivo Molecular Imaging of the Efficacy of Aminopeptidase N (APN/CD13) Receptor Inhibitor Treatment on Experimental Tumors Using ^68Ga-NODAGA-c(NGR) Peptide” (BioMed Research International, 2021).
